In publication PMC9556845 (Frontiers in Microbiology, 2022):
Entries after “also recorded” stand apart in the source; their conditions may differ. Like-named read-outs stand apart in the source and are kept apart here.

Tests used:
Type in all cases: biochemical
TCPTP = molecular target: T1, TCPTP (Homo sapiens, UniProt P17706); assay: Inhibition of protein tyrosine phosphatase (PTPs) assay, pNPP substrate: TCPTP
T1 sequence (P17706 1-415): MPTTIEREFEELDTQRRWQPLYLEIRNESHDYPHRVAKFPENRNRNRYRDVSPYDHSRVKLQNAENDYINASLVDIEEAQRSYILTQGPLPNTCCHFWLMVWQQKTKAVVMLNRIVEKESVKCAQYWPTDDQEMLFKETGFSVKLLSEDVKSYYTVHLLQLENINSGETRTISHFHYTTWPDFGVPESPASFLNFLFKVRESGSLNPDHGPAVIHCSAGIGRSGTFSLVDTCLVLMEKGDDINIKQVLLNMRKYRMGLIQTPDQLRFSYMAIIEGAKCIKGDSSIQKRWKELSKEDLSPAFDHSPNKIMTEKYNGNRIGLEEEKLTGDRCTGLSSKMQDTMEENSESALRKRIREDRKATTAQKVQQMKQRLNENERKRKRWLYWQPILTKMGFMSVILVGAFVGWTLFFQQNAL
Description: (§1) Protein tyrosine phosphatase (PTPs) plays an important role in many human threatening diseases, such as PTP1B, an effective target for the treatment of type II diabetes; CD45, an effective target for the treatment of leukemia; and TCPTP, a reliable target for the treatment of cancer involved in multiple signaling pathways ([Ruddraraju and Zhang, 2017]). Nitrophenyl phosphate (pNPP) was used as substrate to determine the enzyme inhibition test. Fifty microliter reaction buffer (pH 6.5) including 50 mM HEPES, 100 mM NaCl, 1 mM EDTA, and 1 mM dithiothreitol (DTT) and compounds was added to 96 well plates, and incubate at room temperature for 15 min. Further, 50 μl reaction buffer with 50 mM pNPP was added and incubated at 37°C for 60 min. Na3VO4 was used as positive control and DMSO as the negative control. The phosphatase activity was determined by absorbance measured at 405 nm. The test was repeated three times for each compound. The IC50 value was derived from three independent experiments.
(§2) Protein tyrosine phosphatase (PTPs) plays an important role in many human threatening diseases, such as PTP1B, an effective target for the treatment of type II diabetes; CD45, an effective target for the treatment of leukemia; and TCPTP, a reliable target for the treatment of cancer involved in multiple signaling pathways ([Zhang, 2003]; [Vintonyak et al., 2009]).

PTP1B = molecular target: T2, PTP1B (Homo sapiens, UniProt P18031); assay: Inhibition of protein tyrosine phosphatase (PTPs) assay, pNPP substrate: PTP1B; details: for inhibitory activity against PTP1B (in words): in vitro, compared with Na3VO4
T2 sequence (P18031 1-435): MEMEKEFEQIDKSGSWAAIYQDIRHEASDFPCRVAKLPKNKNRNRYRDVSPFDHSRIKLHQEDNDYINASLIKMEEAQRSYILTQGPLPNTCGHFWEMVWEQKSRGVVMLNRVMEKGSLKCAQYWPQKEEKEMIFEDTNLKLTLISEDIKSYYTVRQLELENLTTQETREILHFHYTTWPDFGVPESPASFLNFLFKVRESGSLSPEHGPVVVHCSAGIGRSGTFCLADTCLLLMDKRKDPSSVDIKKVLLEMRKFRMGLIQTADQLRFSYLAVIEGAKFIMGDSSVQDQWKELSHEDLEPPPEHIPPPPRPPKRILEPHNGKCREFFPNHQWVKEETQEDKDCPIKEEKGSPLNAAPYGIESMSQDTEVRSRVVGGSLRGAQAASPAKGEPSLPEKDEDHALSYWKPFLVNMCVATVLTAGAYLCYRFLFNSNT
Protocol: Nitrophenyl phosphate (pNPP) was used as substrate to determine the enzyme inhibition test. Fifty microliter reaction buffer (pH 6.5) including 50 mM HEPES, 100 mM NaCl, 1 mM EDTA, and 1 mM dithiothreitol (DTT) and compounds was added to 96 well plates, and incubate at room temperature for 15 min. Further, 50 μl reaction buffer with 50 mM pNPP was added and incubated at 37°C for 60 min. […] The phosphatase activity was determined by absorbance measured at 405 nm. The test was repeated three times for each compound. The IC50 value was derived from three independent experiments.

CD45 = molecular target: T3, CD45 (Homo sapiens, UniProt P08575); assay: Inhibition of protein tyrosine phosphatase (PTPs) assay, pNPP substrate: CD45
T3 sequence (P08575 26-1306): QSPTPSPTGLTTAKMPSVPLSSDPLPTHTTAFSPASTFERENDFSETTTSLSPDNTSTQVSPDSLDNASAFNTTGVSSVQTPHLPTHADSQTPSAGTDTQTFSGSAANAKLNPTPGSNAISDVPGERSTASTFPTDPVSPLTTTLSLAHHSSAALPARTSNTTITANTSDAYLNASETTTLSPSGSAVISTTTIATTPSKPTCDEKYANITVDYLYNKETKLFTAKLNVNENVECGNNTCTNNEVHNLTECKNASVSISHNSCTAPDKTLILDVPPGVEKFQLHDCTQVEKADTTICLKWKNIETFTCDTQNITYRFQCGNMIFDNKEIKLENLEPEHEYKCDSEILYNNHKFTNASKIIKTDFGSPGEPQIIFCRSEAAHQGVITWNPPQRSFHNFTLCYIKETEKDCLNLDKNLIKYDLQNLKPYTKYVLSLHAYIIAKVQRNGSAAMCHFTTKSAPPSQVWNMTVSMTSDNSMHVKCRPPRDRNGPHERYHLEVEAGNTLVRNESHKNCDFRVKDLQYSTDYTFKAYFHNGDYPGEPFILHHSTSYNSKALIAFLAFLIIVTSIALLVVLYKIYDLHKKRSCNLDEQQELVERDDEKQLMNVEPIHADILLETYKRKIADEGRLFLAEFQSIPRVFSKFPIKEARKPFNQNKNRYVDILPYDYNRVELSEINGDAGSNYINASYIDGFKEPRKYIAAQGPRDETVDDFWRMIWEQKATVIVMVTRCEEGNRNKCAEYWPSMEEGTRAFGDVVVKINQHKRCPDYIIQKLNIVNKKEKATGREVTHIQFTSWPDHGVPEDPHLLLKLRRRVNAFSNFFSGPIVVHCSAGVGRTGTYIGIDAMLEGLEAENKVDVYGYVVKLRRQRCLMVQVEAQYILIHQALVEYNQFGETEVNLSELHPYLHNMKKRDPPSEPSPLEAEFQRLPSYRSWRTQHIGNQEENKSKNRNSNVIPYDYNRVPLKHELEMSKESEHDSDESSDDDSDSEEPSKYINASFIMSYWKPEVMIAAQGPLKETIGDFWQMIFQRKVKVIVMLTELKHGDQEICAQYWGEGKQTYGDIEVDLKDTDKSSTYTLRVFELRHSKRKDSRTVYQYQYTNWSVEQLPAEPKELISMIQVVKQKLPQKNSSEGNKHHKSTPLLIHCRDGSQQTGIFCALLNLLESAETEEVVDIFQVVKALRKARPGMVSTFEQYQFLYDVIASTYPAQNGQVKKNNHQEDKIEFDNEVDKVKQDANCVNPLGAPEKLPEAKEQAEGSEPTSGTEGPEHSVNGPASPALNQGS
Description: as §1, §2

IDH1 R132h = IDH1 R132h (Homo sapiens, UniProt O75874, R132H); assay: Isocitrate dehydrogenase inhibition assay (NADPH/α-KG, WST-8 readout); details: for IC50: room temperature 60 min, absorbance 450 nm, repeated three times
Sequence of IDH1 R132h (O75874 whole entry R132H): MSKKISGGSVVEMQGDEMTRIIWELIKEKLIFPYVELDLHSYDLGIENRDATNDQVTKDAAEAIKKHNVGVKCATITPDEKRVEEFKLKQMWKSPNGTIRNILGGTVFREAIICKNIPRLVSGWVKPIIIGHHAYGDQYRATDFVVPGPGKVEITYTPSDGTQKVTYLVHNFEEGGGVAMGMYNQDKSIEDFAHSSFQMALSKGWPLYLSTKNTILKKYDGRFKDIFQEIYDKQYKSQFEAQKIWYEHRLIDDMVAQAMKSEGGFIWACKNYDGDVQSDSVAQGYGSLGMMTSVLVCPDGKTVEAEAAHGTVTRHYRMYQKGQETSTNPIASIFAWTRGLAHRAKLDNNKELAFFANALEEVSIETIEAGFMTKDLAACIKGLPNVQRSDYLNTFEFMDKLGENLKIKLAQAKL
Protocol: DMSO was used to configure the compounds into different concentrations as test samples. 2 mm NADPH (3 μl) and 1 m α-Kg (0.1 μl) was added to IDH1 buffer (pH 6.5; 96 μl) solution as reaction substrate in the reaction system. Then, the test samples (2.0 μl), IDH1 R132h (0.4 μl), PMS (0.1 μl) and 15 mM WST-8 (1.0 μl) were successively added to the above mixture and reacted at room temperature for 60 min. AGI-5198 was used as positive control and DMSO as the negative control. The absorption peak of 450 nm was detected by microplate reader. The test was repeated three times for each test samples, and the IC50 was calculated by GraphPad Prism.
We have learned that isocitrate dehydrogenase (IDH) gene mutations are closely related to the occurrence and development of tumors ([Fujii et al., 2016]). IDH mutations mainly occur in malignant tumors such as glioma, acute myeloid leukemia, chondrosarcoma, and intrahepatic cholangiocarcinoma. IDH mutation ultimately promote the occurrence and development of tumors ([Gondim et al., 2019]). Therefore, inhibition of IDH1 R132h activity was screened using the above compounds. AGI-5198 was used as a positive control in this experiment with the IC50 value of 0.04 μg/ml.

[1] = pNPP substrate, pH 6.5, 37°C 60 min, absorbance 405 nm, three independent experiments, read-out: IC50 TCPTP
[2] = pNPP substrate, pH 6.5, 37°C 60 min, absorbance 405 nm, three independent experiments, read-out: IC50 PTP1B (converted)
[3] = pNPP substrate, pH 6.5, 37°C 60 min, absorbance 405 nm, three independent experiments, read-out: IC50 CD45 (converted)
[4] = pNPP substrate, pH 6.5, 37°C 60 min, absorbance 405 nm, three independent experiments

SMILES	IC50 (TCPTP; [1]) [µM]	IC50 (PTP1B; [2]) [µM]	IC50 (CD45; [3]) [µM]	IC50 (IDH1 R132h) [µM]	further results
COc1cc(O)cc(C2=C(C)C[C@@H](O)C2=O)c1 [Compound 14, (+)-nigrosporaol A]	> 427	383	> 427		
COc1cc(O)c2c(c1)C1(CC(O)C(O)C=C1C)OC2=O (centres unmarked) [Compound 2, Alternafurone B]				66.4	inhibitory activity against IDH1 R132h (in words) (IDH1 R132h): inhibitory activities
Cc1cc(O)cc2oc(CO)cc(=O)c12 [Compound 19, 7-hydroxy-2-hydroxymethyl-5-methyl-4H-chromen-4-one]	> 485	> 485	120		
COC(=O)C1CC2(O)CC3(C)OC(=O)c4c(O)cc(OC)cc4C3=CC2(O)O1 (centres unmarked) [Compound 4, Alternapyrone N]				36	inhibitory activity against IDH1 R132h (in words) (IDH1 R132h): inhibitory activities
Cc1cc(O)cc2oc(=O)c3c(O)cc(O)cc3c12 [Compound 6, alternariol]					IC50 (TCPTP): 30.2 µM; inhibitory activity against TCPTP (in words) (TCPTP; in vitro, compared with Na3VO4): definite inhibitory activity; IC50 (PTP1B): 61 µM; IC50 (CD45): 22.5 µM; inhibitory activity against CD45 (in words) (CD45; in vitro, compared with Na3VO4): definite inhibitory activity
COc1cc(O)c2c(c1)C1=CC3(CC(O)C(=O)O3)C(O)CC1(C)OC2=O (centres unmarked) [Compound 3, Alternapyrone M]				> 147	
COc1cc(O)c2c(c1)C1C[C@H](O)[C@@H](O)C[C@@]1(C)OC2=O (some centres unmarked) [Compound 9, 3-epidihydroaltenuene A]	> 340	3.3	> 340		inhibitory activity against PTP1B (in words) (PTP1B): specific and significant inhibition; also recorded: significant inhibitory activity
Cc1cc(=O)c2c(C)cc(O)cc2o1 [Compound 17, 2,5-dimethyl-7-hydroxychromone]	> 526	> 526	104		
Cc1ccccc1C(C(=O)NC1CCCCC1)N(C(=O)Cn1ccnc1C)c1cccc(F)c1 (centres unmarked) [AGI-5198, reference compound]				0.0865	
COc1cc(O)c2c(c1)C1=C[C@H](O)[C@@H](O)C[C@]1(C)OC2=O [Compound 10, 5-hydroxyepialtenuene]	> 342	156	> 342		
[Na+].[Na+].[Na+].[O]=[V]([O-])([O-])[O-] [Na3VO4, reference compound]					IC50 TCPTP (TCPTP; [4]): 0.44 ± 0.11 µg/mL; IC50 CD45 (CD45; [4]): 0.36 ± 0.09 µg/mL
COc1cc(O)c2c(c1)C1(CC(O)C(O)C=C1C)OC2=O (centres unmarked) [Compound 1, Alternafurone A]				101	inhibitory activity against IDH1 R132h (in words) (IDH1 R132h): inhibitory activities
COc1cc(O)c2c(=O)oc3cc(O)cc(C)c3c2c1 [Compound 7, alternariol 9-methyl ether]					IC50 (TCPTP): 211 µM; IC50 (PTP1B): 139 µM; IC50 (CD45): 72.8 µM
COc1cc(O)c2c(c1)C1=CC(O)C(O)CC1(C)OC2=O (centres unmarked) [Compound 12, 4′-epialtenuene]	> 342	25.5	> 342		inhibitory activity against PTP1B (in words) (PTP1B): inhibitory activity
COc1cc(O)c2c(c1)C1=C[C@@H](O)[C@@H](O)C[C@]1(C)OC2=O [Compound 11, 5′-epialtenuene]	> 342	187	> 342		
